Reference: paper PMC10478957 (Biochemistry, 2023)

Legend:
BtNosP [1] = target: BtNosP (Burkholderia thailandensis, UniProt Q2T7C0); assay: biochemical; format: binding
BtNosP [2] = target: T1, BtNosP (Burkholderia thailandensis, UniProt Q2T7C0); format: binding
T1 sequence (Q2T7C0 1-386): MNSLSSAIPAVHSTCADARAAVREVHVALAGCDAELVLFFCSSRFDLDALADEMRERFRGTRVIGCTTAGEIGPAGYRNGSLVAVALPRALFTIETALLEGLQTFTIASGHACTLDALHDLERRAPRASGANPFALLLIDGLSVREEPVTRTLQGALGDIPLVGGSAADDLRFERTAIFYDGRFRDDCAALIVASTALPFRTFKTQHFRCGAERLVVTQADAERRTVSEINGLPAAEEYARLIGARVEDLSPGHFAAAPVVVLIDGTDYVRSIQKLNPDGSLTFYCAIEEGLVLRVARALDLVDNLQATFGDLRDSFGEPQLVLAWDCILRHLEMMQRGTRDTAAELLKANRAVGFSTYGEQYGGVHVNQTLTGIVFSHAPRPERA

Compound | Kd (BtNosP [1]) | UV-vis spectroscopy of Fe(II)-NO complex; CO/dithionite trap NO dissociation rat (BtNosP [2])
C=CC1=C(C)C2=Cc3c(C=C)c(C)c4[n]3[Fe]([Cl])[n]3c(c(C)c(CCC(=O)O)c3=CC3=NC(=C4)C(C)=C3CCC(=O)O)=CC1=N2 [hemin] | 530 ± 120 nM | 
[N]=O [nitric oxide] |  | (1.73 ± 0.6) × 10^−4 s^−1
